# Measured values taken from PMC7010025 (EFSA Journal, 2017).
# Entries after “also recorded” stand apart in the source; their conditions may differ. Like-named read-outs stand apart in the source and are kept apart here.
# Legend:
# [1] = test system: S. Typhimurium TA98, TA100, TA1535, TA1537 Escherichia coli WP2uvrA; details: ref Nucro‐Technics, 2011a, cited from earlier work; for Increase in colony counts per plate vs negative controls: positive controls
# [2] = test system: primary human lymphocytes; details: ref Nucro‐Technics, 2011b, cited from earlier work; for Cells with structural chromosomal aberrations: 20 h without S9‐mix
# [3] = cited from earlier work; for Decarboxylation product concentration: starting batch held ~0.4% S9379
# [4] = oral dosing in rat; ref Senomyx, 2011b; cited from earlier work
# [5] = cited from earlier work; for Dry powder stability: 100°C up to 24 h
# [6] = test system: Salmonella Typhimurium strains, TA98 and TA100; details: up to 5,000 μg/plate, ref BioReliance, 2011, cited from earlier work
# [7] = ref Senomyx, 2011a, cited from earlier work
# [8] = test system: bone marrow polychromatic erythrocytes; details: ref Nucro‐Technics, 2011c, cited from earlier work
# [9] = gavage, gestation days 6 through 20; ref WIL Research, 2012a; cited from earlier work
# [10] = male and female rats, highest dose tested; ref MPI, 2011b; cited from earlier work
# [11] = ref applicant dossier, cited from earlier work
# [12] = rat, 60‐min incubation; ref PharmOptima, 2011; cited from earlier work
# [13] = 10 mg/kg oral, ref Senomyx, 2013, cited from earlier work; for Average recovered from faeces and urine: 72‐h collection
# [14] = human, 60‐min incubation; ref PharmOptima, 2011; cited from earlier work
# Margins of safety = details: child; developmental toxicity NOAEL vs chronic APET
# [15] = read-out: Combined mean Cmax; diet 100 mg/kg per day, day 7; ref MPI, 2011b; cited from earlier work
# [16] = ref WIL Research, 2012b; cited from earlier work
# [17] = sulfate salt in sugar cookie, 177°C 10 min, 18 mg/kg
# [18] = cake, 177°C 30 min, ref Senomyx, 2016
# [19] = cookie, 204°C 8 min, ref Senomyx, 2016
# [20] = hard candy, 149°C ~30 min, ref Senomyx, 2016
# [21] = cake, 177°C 30 min, nominal 5 mg/kg, ref Senomyx, 2016
# [22] = cookie, 204°C 8 min, nominal 5 mg/kg, ref Senomyx, 2016
# [23] = hard candy, 149°C ~30 min, nominal 15 mg/kg, ref Senomyx, 2016
# [24] = 100 mg/kg per day gavage, day 7
compound,measurement,setting,value
Nc1ccc2cc3ccccc3cc2c1 [2‐aminoanthracene],Increase in colony counts per plate vs negative controls,[1]; experiments with S9‐mix,≥ 3.1 fold
O=[N+]([O-])c1ccc2c(c1)Cc1ccccc1-2 [2‐nitrofluorene],Increase in colony counts per plate vs negative controls,[1]; experiments without S9‐mix,≥ 3.1 fold
[N-]=[N+]=[N-].[Na+] [sodium azide],Increase in colony counts per plate vs negative controls,[1]; experiments without S9‐mix,≥ 3.1 fold
"Cc1nc2cccc(OCC(C)(C)C(=O)NC(C)C)c2c(N)c1C(=O)[O-].[Na+] [[FL‐no: 16.130] sodium salt, sodium 4‐amino‐5‐(3‐(isopropylamino)‐2,2‐dimethyl‐3‐oxopropoxy)‐2‐methylquinoline‐3‐carboxylate]",Toxicity to tester strains,"[1]; any concentration including 5,000 μg per plate",No toxicity was observed
same,Bacterial gene mutation assay result,"[1]; plate incorporation and pre‐incubation, with and without metabolic activation, up to 5,000 μg/plate",Negative
same,Cells with chromosomal aberrations,"[2]; 3 h with S9‐mix, 125 μg/mL (control 3.5%)",5.0%
same,Cells with chromosomal aberrations,"[2]; 3 h with S9‐mix, 250 μg/mL",4.0%
same,Cells with chromosomal aberrations,"[2]; 3 h without S9‐mix, 250 μg/mL",2.0%
same,Cells with structural chromosomal aberrations,[2]; 125 μg/mL (control 1.5%),2.0%
same,Cells with structural chromosomal aberrations,[2]; 250 μg/mL,1.0%
same,Cells with structural chromosomal aberrations,[2]; 500 μg/mL,3.0%
c1ccc2c(c1)cc1ccc3cccc4ccc2c1c34 [benzo[α]pyrene],Increase in colony counts per plate vs negative controls,[1]; experiments with S9‐mix,≥ 3.1 fold
O=P1(N(CCCl)CCCl)NCCCO1 (stereo not shown) [cyclophosphamide monohydrate],Increase in colony counts per plate vs negative controls,[1]; experiments with S9‐mix,≥ 3.1 fold
"Cc1nc2cccc(OCC(C)(C)C(=O)NC(C)C)c2c(N)c1C(=O)O.Cc1nc2cccc(OCC(C)(C)C(=O)NC(C)C)c2c(N)c1C(=O)O.O.O.O=S(=O)(O)O [[FL‐no: 16.130] sulfate salt, 4‐Amino‐5‐(3‐(isopropylamino)‐2,2‐dimethyl‐3‐oxopropoxy)‐2‐methylquinoline‐3‐carboxylic acid hemisulfate monohydrate salt]",Recovery,"[3]; sulfate salt in hard candy, 149°C ~30 min, nominal 24 mg/kg",104%
same,Recovery,[3]; [17],100%
same,Bioequivalence to the candidate substance (systemic exposure),[4],equivalent
same,Dry powder stability,"[5]; ref Senomyx, 2016",stable
"Cc1cc(N)c2c(OCC(C)(C)C(=O)NC(C)C)cccc2n1 [S9379, 4‐amino‐5‐(3‐(isopropylamino)‐2,2‐dimethyl‐3‐oxopropoxy)‐2‐methylquinoline]","Decarboxylation product, % of [FL‐no: 16.130] nominal",[3]; [18],0.82%
same,Decarboxylation product concentration,[3]; [18],0.041 mg/kg
same,"Breakdown product S9379, % of nominal [FL‐no: 16.130] concentration","[3]; cake, cookie and candy prototypes",< 1%
same,"Decarboxylation product, % of [FL‐no: 16.130] nominal",[3]; [19],0.86%
same,Decarboxylation product concentration,[3]; [19],0.043 mg/kg
same,"Decarboxylation product, % of [FL‐no: 16.130] nominal",[3]; [20],0.94%
same,Decarboxylation product concentration,[3]; [20],0.14 mg/kg
same,Concentration of potential degradant S9379,"[3]; sulfate salt in hard candy, nominal 24 mg/kg",0.04 mg/kg
same,Concentration of potential degradant S9379,[3]; [17],0.02 mg/kg
same,"S9379, % of nominal sulfate salt concentration",[3]; [17],0.1%
COS(C)(=O)=O [methyl methanesulfonate],Increase in colony counts per plate vs negative controls,[1]; experiments without S9‐mix,≥ 3.1 fold
Nc1c2ccccc2nc2ccccc12 [9‐aminoacridine],Increase in colony counts per plate vs negative controls,[1]; experiments without S9‐mix,≥ 3.1 fold
"Cc1nc2cccc(OCC(C)(C)C(=O)NC(C)C)c2c(N)c1C(=O)O [[FL‐no: 16.130], 4‐Amino‐5‐(3‐(isopropylamino)‐2,2‐dimethyl‐3‐oxopropoxy)‐2‐methylquinoline‐3‐carboxylic acid]",Mean measured concentration,[3]; [21],5.8 mg/kg
same,Measured concentration,[3]; [21],5.1 to 6.1 mg/kg
same,Stability in model product prototypes,"[3]; cake, cookie and candy, typical processing conditions",stable
same,Mean measured concentration,[3]; [22],5.4 mg/kg
same,Measured concentration,[3]; [22],5.1 to 5.8 mg/kg
same,Mean measured concentration,[3]; [23],13.1 mg/kg
same,Measured concentration,[3]; [23],12.7 to 13.4 mg/kg
same,"Recovery, % of nominal concentration",[3]; [23],87%
same,Bacterial gene mutation assay result,"[6]; TA98, TA100, with and without S9‐mix",not mutagenic; also recorded: Negative
same,Bacterial toxicity,[6],did not result in bacterial toxicity
same,Combined mean AUC0–24,[7]; [24],232 ng·h/mL
same,Combined mean Cmax,[7]; [24],154 ng/mL
same,Oral bioavailability (%F),"[7]; oral gavage, male and female rats, listed as candidate substance",0.53–1.19%
same,Accumulation in plasma,"[7]; repeated oral dosing, seven consecutive days",No significant accumulation
same,PCE/NCE ratio,[8]; any dose tested,No statistically significant decrease
same,In vivo micronucleus test result,"[8]; single oral gavage, 500, 1,000 and 2,000 mg/kg bw, 24, 36, 48 h, no evidence of bone marrow exposure",did not induce micronuclei; also recorded: Negative
same,"Result, dose range‐finding developmental toxicity study",[9],"1,000 mg/kg bw per day"
same,NOAEL following 13 weeks of dietary administration,[10],100 mg/kg bw per day
same,Solubility in ethanol,[11]; 95% ethanol,"1,600 mg/L"
same,Solubility,[11]; in water,700 µg/mL
same,Metabolism by microsomes,[12],not metabolised
same,Recovered in faeces,[13],75.5–99.5%
same,Recovered in urine,[13],0.1–0.6%
same,Average recovered from faeces and urine,[13]; female rats,91.4%
same,Average recovered from faeces and urine,[13]; male rats,86.2%
same,Metabolism by microsomes,[14],not metabolised
same,Margin of safety,Margins of safety,"27,000"
same,Stability in aqueous solution,"[5]; 40°C, pH 2.8, 4.0 and 7.1, 4 weeks, ref applicant dossier",stable
same,Dry powder stability,"[5]; ref Senomyx, 2016",stable
same,Dry powder stability at 175°C,"[5]; 175°C, S9379 only decomposition product, ref Senomyx, 2016",thermal degradation may take place
same,Cmax,[15],317 nM
same,"NOAEL, developmental toxicity study in the rat",[16],"1,000 mg/kg bw per day"
